The structures appear in SMILES notation. Entries after “also recorded” stand apart in the source; their conditions may differ.

Results on 2 compounds are retold here after patent US20260200902A1, “CRYSTALLINE FORMS OF 7-CHLORO-2-(4-(3-METHOXYAZETIDIN-1-YL)CYCLOHEXYL)-2,4- DIMETHYL-N-((6-METHYL-4-(METHYLTHIO)-2-OXO-1,2-DIHYDROPYRIDIN-3-YL)METHYL)BENZO [D][1,3]DIOXOLE-5-CARBOXAMIDE” (Constellation Pharmaceuticals, Inc., priority 2019, published 2026).

Assay type in all cases: physicochemical
A short description of series [1]: Static stability storage at elevated RH (5 days), XRPD and HPLC. As to conditions: for Solid form by XRPD after storage: stored for 5 days at elevated RH conditions.
A short description of series [2]: Gravimetric vapour sorption (GVS) analysis. As to conditions: for XRPD post GVS (solid form): after GVS analysis.
Series [3] is described as follows: Relative stability of crystalline forms (polymorph screening and competitive slurry experiments). The conditions noted are these: Form 1 versus Form 2. Here is the method: The amorphous form of Compound 1 samples with different purities, one with 95.2% purity (30 mg) and another with 97.6% purity (20 mg), were each suspended or dissolved in 10-30 vol of a given solvent at RT. After 5 m n equilibration at RT, all samples (solutions and suspensions) were heated to 50° C. for 10 minutes and the resulting samples were treated as follows: Suspensions were matured between 60 and 5 FC for 72 hrs (4 hrs at each temperature). Solutions were cooled from 50 to 5° C. at 0.1° C./min and maintained at 5° C. for 72 hrs. If no solid was obtained, the solutions were allowed to evaporate at RT. All the recovered solids were analyzed by XRPD and subsequently by the appropriate techniques. See Tables 1-3 for screening procedures and analytical results.

As for `COC1CN(C2CCC(C3(C)Oc4c(Cl)cc(C(=O)NCc5c(SC)cc(C)[nH]c5=O)c(C)c4O3)CC2)C1` (centres unmarked) [Form 1, 7-chloro-2-(4-(3-methoxyazetidin-1-yl)cyclohexyl)-2,4-dimethyl-N-((6-methyl-4-(methylthio)-2-oxo-1,2-dihydropyridin-3-yl)methyl)benzo[d][1,3]dioxole-5-carboxamide], in series [1] (25° C./97% RH (5 days)), the “Static stability, HPLC” value is reported as 96.8% and the “Static stability, XRPD” value is given as “XRPD: Slight reduction in crystallinity,; also recorded: remained pattern 1”. Also, in series [1] (40° C./75% RH (5 days)), the “Static stability, HPLC” value amounted to 96.5% and the “Static stability, XRPD” value is recorded as “XRPD: Slight reduction in crystallinity,; also recorded: remained pattern 1”. Also, the “Solid form by XRPD after storage” value in series [1] was “remained Form 1”. Besides, in series [2], the “Hygroscopicity by GVS analysis” value is given as “slightly hygroscopic” and the “XRPD post GVS (solid form)” value is listed as “remained Form 1; also recorded: showed the material remained Pattern 1”. In addition, in series [3], the “Relative stability of crystalline form” value is reported as “more stable than Form 2”.

For the compound `COC1CN(C2CCC(C3(C)Oc4c(Cl)cc(C(=O)NCc5c(SC)cc(C)[nH]c5=O)c(C)c4O3)CC2)C1` (centres unmarked) [Form 2, 7-chloro-2-(4-(3-methoxyazetidin-1-yl)cyclohexyl)-2,4-dimethyl-N-((6-methyl-4-(methylthio)-2-oxo-1,2-dihydropyridin-3-yl)methyl)benzo[d][1,3]dioxole-5-carboxamide], in series [1], the “Solid form by XRPD after storage” value is “became amorphous”. Further, the “XRPD post GVS (solid form)” value in series [2] is on record as “became amorphous”. Also, the “Relative stability of crystalline form” value in series [3] is “less stable crystalline form than Form 1”.
